Laboratory results from patent publication US8912329B2 (priority 2009, dated 2014).

What was measured:
EthR-VP16 = EthR-VP16 (Mycobacterium bovis, UniProt Q7TVI1); assay: cell-based; set-up: species or system M. bovis; details: 48 h, read-out: % EthR activity (w/o = 100%); ± std. dev. of the mean (n = 3)
[1] = system: Mycobacterium tuberculosis laboratory strain H37Rv; assay: Growth inhibition / drug susceptibility testing of M. tuberculosis with MGIT 960 system, compounds combined with ethionamide; format: cell-based; set-up: key to growth inhibition of M. tuberculosis H37Rv (R/I/S): R: Resistance, no effect of combinatorial drug application; I: intermediate; S: sensitive; details: for growth inhibitory effect of compound alone on M. tuberculosis H37Rv: without ethionamide; for growth of M. tuberculosis H37Rv in the presence of sub-inhibitory ethionamide concentrations: ethionamide 0.16 and 5 μg/ml, 0.5 to 40.5 μMol compound
[2] = Example compound 0.5 μM + ethionamide 0.16 μg/ml
[3] = Example compound 0.5 μM + ethionamide 0.31 μg/ml
[4] = Example compound 0.5 μM + ethionamide 0.625 μg/ml
[5] = Example compound 0.5 μM + ethionamide 1.25 μg/ml
[6] = Example compound 0.5 μM + ethionamide 2.5 μg/ml
[7] = Example compound 0.5 μM + ethionamide 5 μg/ml
[8] = Example compound 0.5 μM, ethionamide 0 μg/ml
[9] = Example compound 1.5 μM + ethionamide 0.16 μg/ml
[10] = Example compound 1.5 μM + ethionamide 0.31 μg/ml
[11] = Example compound 1.5 μM + ethionamide 0.625 μg/ml
[12] = Example compound 1.5 μM + ethionamide 1.25 μg/ml
[13] = Example compound 1.5 μM + ethionamide 2.5 μg/ml
[14] = Example compound 1.5 μM + ethionamide 5 μg/ml
[15] = Example compound 1.5 μM, ethionamide 0 μg/ml
[16] = Example compound 4.5 μM + ethionamide 0.16 μg/ml
[17] = Example compound 4.5 μM + ethionamide 0.31 μg/ml
[18] = Example compound 4.5 μM + ethionamide 0.625 μg/ml
[19] = Example compound 4.5 μM + ethionamide 1.25 μg/ml
[20] = Example compound 4.5 μM + ethionamide 2.5 μg/ml
[21] = Example compound 4.5 μM + ethionamide 5 μg/ml
[22] = Example compound 4.5 μM, ethionamide 0 μg/ml
[23] = Example compound 13.5 μM + ethionamide 0.16 μg/ml
[24] = Example compound 13.5 μM + ethionamide 0.31 μg/ml
[25] = Example compound 13.5 μM + ethionamide 0.625 μg/ml
[26] = Example compound 13.5 μM + ethionamide 1.25 μg/ml
[27] = Example compound 13.5 μM + ethionamide 2.5 μg/ml
[28] = Example compound 13.5 μM + ethionamide 5 μg/ml
[29] = Example compound 13.5 μM, ethionamide 0 μg/ml
[30] = Example compound 40.5 μM + ethionamide 0.16 μg/ml
[31] = Example compound 40.5 μM + ethionamide 0.31 μg/ml
[32] = Example compound 40.5 μM + ethionamide 0.625 μg/ml
[33] = Example compound 40.5 μM + ethionamide 1.25 μg/ml
[34] = Example compound 40.5 μM + ethionamide 2.5 μg/ml
[35] = Example compound 40.5 μM + ethionamide 5 μg/ml
[36] = Example compound 40.5 μM, ethionamide 0 μg/ml

Chain of EthR-VP16 (Q7TVI1 whole entry, looked up): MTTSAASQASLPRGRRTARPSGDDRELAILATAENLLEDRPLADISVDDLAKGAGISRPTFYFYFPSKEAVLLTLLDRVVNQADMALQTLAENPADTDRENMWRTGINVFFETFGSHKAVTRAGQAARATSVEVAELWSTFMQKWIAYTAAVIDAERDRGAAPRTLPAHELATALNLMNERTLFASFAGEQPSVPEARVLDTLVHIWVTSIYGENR

`O=C(COc1ccc(F)cc1)N1CCC(c2ccccc2)C1` (stereo not drawn) [Example 15, 2-(4-Fluorophenoxy)-1-(3-phenylpyrrolidin-1-yl)ethan-1-one] gave a remaining activity at 0.5 µM (EthR-VP16) of 10.3 ± 1.26%, a remaining activity at 1.5 µM (EthR-VP16) of 10.3 ± 0.43% and a remaining activity at 3 µM (EthR-VP16) of 7.81 ± 0.95%. The remaining activity at 6 µM (EthR-VP16) was 6.01 ± 1.93%, the remaining activity at 15 µM (EthR-VP16) was 3.21 ± 1.35% and the remaining activity at 30 µM (EthR-VP16) was 0.77 ± 0.32%. The remaining activity at 60 µM (EthR-VP16) was 0.86 ± 0.36%, the remaining activity at 300 µM (EthR-VP16) was 0.89 ± 0.37% and the “growth inhibition of M. tuberculosis H37Rv (R/I/S)” value (from here on “growth inhibition”) [1, 2] was “R”. The “growth inhibition” value [1, 3] was “R”, the “growth inhibition” value [1, 4] was “I” and the “growth inhibition” value [1, 5] was “S”. For the same compound, the “growth inhibition” value [1, 6] was “S”, the “growth inhibition” value [1, 7] was “S” and the “growth inhibition” value [1, 8] was “R”. The “growth inhibition” value [1, 9] was “R”, the “growth inhibition” value [1, 10] was “I” and the “growth inhibition” value [1, 11] was “I”. For the same compound, the “growth inhibition” value [1, 12] was “S”, the “growth inhibition” value [1, 13] was “S” and the “growth inhibition” value [1, 14] was “S”. The “growth inhibition” value [1, 15] was “R”, the “growth inhibition” value [1, 16] was “R” and the “growth inhibition” value [1, 17] was “I”. For the same compound, the “growth inhibition” value [1, 18] was “S”, the “growth inhibition” value [1, 19] was “S” and the “growth inhibition” value [1, 20] was “S”. For the same compound, the “growth inhibition” value [1, 21] was “S”, the “growth inhibition” value [1, 22] was “R” and the “growth inhibition” value [1, 23] was “R”. For the same compound, the “growth inhibition” value [1, 24] was “I”, the “growth inhibition” value [1, 25] was “S” and the “growth inhibition” value [1, 26] was “S”. For the same compound, the “growth inhibition” value [1, 27] was “S”, the “growth inhibition” value [1, 28] was “S” and the “growth inhibition” value [1, 29] was “R”. The “growth inhibition” value [1, 30] was “R”, the “growth inhibition” value [1, 31] was “I” and the “growth inhibition” value [1, 32] was “S”. The “growth inhibition” value [1, 33] was “S”, the “growth inhibition” value [1, 34] was “S” and the “growth inhibition” value [1, 35] was “S”. For the same compound, the “growth inhibition” value [1, 36] was “R”, the “growth inhibitory effect of compound alone on M. tuberculosis H37Rv” value (“growth inhibitory effect” below) [1] was “do not show any growth inhibitory effect” and the “growth of M. tuberculosis H37Rv in the presence of sub-inhibitory ethionamide concentrations” value [1] was “dose-dependently inhibited”.
`O=C(CCc1ccccc1)N1CCC(c2ccccc2)C1` (stereo not drawn) [Example 16, 3-Phenyl-1-(3-phenylpyrrolidin-1-yl)propan-1-one] gave a remaining activity at 0.5 µM (EthR-VP16) of 28.3 ± 1.26%, a remaining activity at 1.5 µM (EthR-VP16) of 27.2 ± 0.46% and a remaining activity at 3 µM (EthR-VP16) of 19.9 ± 0.43%. The remaining activity at 6 µM (EthR-VP16) was 13.5 ± 2.96%, the remaining activity at 15 µM (EthR-VP16) was 11.8 ± 2.6% and the remaining activity at 30 µM (EthR-VP16) was 11.4 ± 2.51%. The remaining activity at 60 µM (EthR-VP16) was 2.82 ± 0.62%, the remaining activity at 300 µM (EthR-VP16) was 0.85 ± 0.18% and the “growth inhibition” value [1, 2] was “R”. The “growth inhibition” value [1, 3] was “R”, the “growth inhibition” value [1, 4] was “I” and the “growth inhibition” value [1, 5] was “S”. The “growth inhibition” value [1, 6] was “S”, the “growth inhibition” value [1, 7] was “S” and the “growth inhibition” value [1, 8] was “R”. For the same compound, the “growth inhibition” value [1, 9] was “R”, the “growth inhibition” value [1, 10] was “I” and the “growth inhibition” value [1, 11] was “S”. For the same compound, the “growth inhibition” value [1, 12] was “S”, the “growth inhibition” value [1, 13] was “S” and the “growth inhibition” value [1, 14] was “S”. For the same compound, the “growth inhibition” value [1, 15] was “R”, the “growth inhibition” value [1, 16] was “R” and the “growth inhibition” value [1, 17] was “I”. The “growth inhibition” value [1, 18] was “S”, the “growth inhibition” value [1, 19] was “S” and the “growth inhibition” value [1, 20] was “S”. For the same compound, the “growth inhibition” value [1, 21] was “S”, the “growth inhibition” value [1, 22] was “R” and the “growth inhibition” value [1, 23] was “I”. The “growth inhibition” value [1, 24] was “S”, the “growth inhibition” value [1, 25] was “S” and the “growth inhibition” value [1, 26] was “S”. The “growth inhibition” value [1, 27] was “S”, the “growth inhibition” value [1, 28] was “S” and the “growth inhibition” value [1, 29] was “R”. The “growth inhibition” value [1, 30] was “I”, the “growth inhibition” value [1, 31] was “I” and the “growth inhibition” value [1, 32] was “S”. The “growth inhibition” value [1, 33] was “S”, the “growth inhibition” value [1, 34] was “S” and the “growth inhibition” value [1, 35] was “S”. For the same compound, the “growth inhibition” value [1, 36] was “R”, the “growth inhibitory effect” value [1] was “do not show any growth inhibitory effect” and the “growth of M. tuberculosis H37Rv in the presence of sub-inhibitory ethionamide concentrations” value [1] was “dose-dependently inhibited”.
Work on `O=C(Cc1ccccc1)N1CCC(c2ccccc2)C1` (stereo not drawn) [Example 17, 2-Phenyl-1-(3-phenylpyrrolidin-1-yl)ethan-1-one] yielded a remaining activity at 0.5 µM (EthR-VP16) of 38.5 ± 8.47%, a remaining activity at 1.5 µM (EthR-VP16) of 35.5 ± 7.81% and a remaining activity at 3 µM (EthR-VP16) of 22.5 ± 4.94%. The remaining activity at 6 µM (EthR-VP16) was 16.3 ± 3.58%, the remaining activity at 15 µM (EthR-VP16) was 14.2 ± 3.13% and the remaining activity at 30 µM (EthR-VP16) was 11.5 ± 8.52%. For the same compound, the remaining activity at 60 µM (EthR-VP16) was 1.86 ± 0.4%, the remaining activity at 300 µM (EthR-VP16) was 0.83 ± 0.18% and the “growth inhibition” value [1, 2] was “R”. For the same compound, the “growth inhibition” value [1, 3] was “R”, the “growth inhibition” value [1, 4] was “R” and the “growth inhibition” value [1, 5] was “R”. For the same compound, the “growth inhibition” value [1, 6] was “I”, the “growth inhibition” value [1, 7] was “S” and the “growth inhibition” value [1, 8] was “R”. For the same compound, the “growth inhibition” value [1, 9] was “R”, the “growth inhibition” value [1, 10] was “R” and the “growth inhibition” value [1, 11] was “R”. For the same compound, the “growth inhibition” value [1, 12] was “I”, the “growth inhibition” value [1, 13] was “S” and the “growth inhibition” value [1, 14] was “S”. The “growth inhibition” value [1, 15] was “R”, the “growth inhibition” value [1, 16] was “R” and the “growth inhibition” value [1, 17] was “R”. For the same compound, the “growth inhibition” value [1, 18] was “R”, the “growth inhibition” value [1, 19] was “I” and the “growth inhibition” value [1, 20] was “S”. For the same compound, the “growth inhibition” value [1, 21] was “S”, the “growth inhibition” value [1, 22] was “R” and the “growth inhibition” value [1, 23] was “R”. The “growth inhibition” value [1, 24] was “R”, the “growth inhibition” value [1, 25] was “I” and the “growth inhibition” value [1, 26] was “I”. For the same compound, the “growth inhibition” value [1, 27] was “S”, the “growth inhibition” value [1, 28] was “S” and the “growth inhibition” value [1, 29] was “R”. The “growth inhibition” value [1, 30] was “R”, the “growth inhibition” value [1, 31] was “R” and the “growth inhibition” value [1, 32] was “S”. For the same compound, the “growth inhibition” value [1, 33] was “S”, the “growth inhibition” value [1, 34] was “S” and the “growth inhibition” value [1, 35] was “S”. For the same compound, the “growth inhibition” value [1, 36] was “R”, the “growth inhibitory effect” value [1] was “do not show any growth inhibitory effect” and the “growth of M. tuberculosis H37Rv in the presence of sub-inhibitory ethionamide concentrations” value [1] was “dose-dependently inhibited”.
